Values joined by “and” are separate entries in the source; they are usually repeats but may differ in a detail not shown here. Identical values can stand only once.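 Cells were grown in 96-well plates and exposed to each compound for 48 hours at five concentrations; endpoints were interpolated linearly between bracketing concentrations, or set to the highest concentration if not reached. GI50: concentration for 50% inhibition of growth.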 Active and inactive are the calls of the source. No stated cut-off is given here; in the data, active = GI50 up to about 1.1 µM and inactive = higher. Peptide text beside a SMILES is read from it. * marks the point of attachment. Boc = CC(C)(C)OC(=O)*
Assays:
Experiment in all cases: NCI tumour cell line growth inhibition, 48 h
K562 = tested on: K562
UO-31 = tested on: UO-31
NCI-H23 = tested on: NCI-H23
SF-539 = tested on: SF-539
HT-29 = tested on: HT-29
HCT-116 = tested on: HCT-116
SNB-75 = tested on: SNB-75
LOX IMVI = tested on: LOX IMVI
KM12 = tested on: KM12
A498 = tested on: A498
OVCAR-8 = tested on: OVCAR-8
COLO 205 = tested on: COLO 205
OVCAR-4 = tested on: OVCAR-4
RPMI-8226 = tested on: RPMI-8226
SW-620 = tested on: SW-620
U-251 = tested on: U-251
PC-3 = tested on: PC-3
MOLT-4 = tested on: MOLT-4
OVCAR-5 = tested on: OVCAR-5
NCI-H522 = tested on: NCI-H522

| Compound | GI50 (K562) | GI50 (UO-31) | GI50 (NCI-H23) | GI50 (SF-539) | GI50 (HT-29) | GI50 (HCT-116) | GI50 (SNB-75) | GI50 (LOX IMVI) | GI50 (KM12) | GI50 (A498) | GI50 (OVCAR-8) | GI50 (COLO 205) | GI50 (OVCAR-4) | GI50 (RPMI-8226) | GI50 (SW-620) | GI50 (U-251) | GI50 (PC-3) | GI50 (MOLT-4) | GI50 (OVCAR-5) | GI50 (NCI-H522) |
| --- | --- | --- | --- | --- | --- | --- | --- | --- | --- | --- | --- | --- | --- | --- | --- | --- | --- | --- | --- | --- |
| N#C/C(C(=O)CCl)=C1\Nc2ccccc2O1 | 3.24 µM (inactive) | 3.62 µM (inactive) | 3.75 µM (inactive) | 2.79 µM (inactive) | 4.13 µM (inactive) | 3.43 µM (inactive) | 5.48 µM (inactive) | 1.65 µM (inactive) | 3.89 µM (inactive) | 1.95 µM (inactive) | 2.89 µM (inactive) | 1.94 µM (inactive) | 1.49 µM (inactive) | 2.92 µM (inactive) | 4.33 µM (inactive) | 5.36 µM (inactive) | 4.45 µM (inactive) | 3.35 µM (inactive) | – | – |
| CC1CCCc2c(C#N)c(N)nc(-c3ccc(Cl)cc3)c21 (centres undefined) | 8.69 µM (inactive) | 13.8 µM (inactive) | 16.8 µM (inactive) | 14.5 µM (inactive) | 6.75 µM (inactive) | 20.7 µM (inactive) | 22.4 µM (inactive) | 16.6 µM (inactive) | 17.9 µM (inactive) | 68.4 µM (inactive) | 31 µM (inactive) | 18.8 µM (inactive) | – | 11.1 µM (inactive) | 53.6 µM (inactive) | 22.2 µM (inactive) | 4.68 µM (inactive) | 7.69 µM (inactive) | 15.6 µM (inactive) | – |
| Cc1oc2c(c1C)S(=O)(=O)C(C#N)C(c1ccccc1)N2 (centres undefined) | – | 41.5 µM (inactive) | 69.5 µM (inactive) | 39.6 µM (inactive) | 67.6 µM (inactive) | 50 µM (inactive) | 40.2 µM (inactive) | 43.8 µM (inactive) | 50.4 µM (inactive) | > 100 µM (inactive) | 40.4 µM (inactive) | 29.3 µM (inactive) | 29.6 µM (inactive) | – | > 100 µM (inactive) | 55 µM (inactive) | 66.5 µM (inactive) | 20.6 µM (inactive) | 91.6 µM (inactive) | 16.9 µM (inactive) |
| CCOP(=O)(OCC)C(C)(CC)NC(=O)C(C(F)(F)F)C(F)(F)F (centres undefined) | – | > 100 µM (inactive) and 97.3 µM (inactive) | > 100 µM (inactive) | – | > 100 µM (inactive) | > 100 µM (inactive) | – | > 88.3 µM (inactive) and 72.3 µM (inactive) | 49.5 µM (inactive) and 58.2 µM (inactive) | > 100 µM (inactive) | > 100 µM (inactive) | > 100 µM (inactive) | > 100 µM (inactive) | 33.3 µM (inactive) and 21.9 µM (inactive) | > 100 µM (inactive) and 92 µM (inactive) | > 100 µM (inactive) | > 100 µM (inactive) | > 49.3 µM (inactive) and 63.4 µM (inactive) | > 100 µM (inactive) | – |
| COc1ccc(/C=N/Nc2nc3ccccc3c(=O)n2-c2ccccc2)c(OCc2ccccc2)c1 | > 100 µM (inactive) | > 100 µM (inactive) | > 100 µM (inactive) | 14.5 µM (inactive) | > 100 µM (inactive) | > 100 µM (inactive) | – | > 100 µM (inactive) | > 100 µM (inactive) | > 100 µM (inactive) | > 100 µM (inactive) | > 100 µM (inactive) | > 100 µM (inactive) | – | > 100 µM (inactive) | > 100 µM (inactive) | 35.6 µM (inactive) | > 100 µM (inactive) | > 100 µM (inactive) | > 100 µM (inactive) |
| COCN1C(=O)[C@@H]2C[C@@H](O)CN2C(=O)c2ccccc21 | > 100 µM (inactive) | > 100 µM (inactive) | > 100 µM (inactive) | – | > 100 µM (inactive) | > 100 µM (inactive) | > 100 µM (inactive) | > 100 µM (inactive) | > 100 µM (inactive) | > 100 µM (inactive) | > 100 µM (inactive) | > 100 µM (inactive) | > 100 µM (inactive) | > 100 µM (inactive) | > 100 µM (inactive) | > 100 µM (inactive) | > 100 µM (inactive) | 61.7 µM (inactive) | > 100 µM (inactive) | > 100 µM (inactive) |
| CC(C)(C)OC(=O)C1CCC/C1=N/Nc1ccc([N+](=O)[O-])cc1[N+](=O)[O-] (centres undefined) | 15.7 µM (inactive) | 17.6 µM (inactive) | 18 µM (inactive) | – | 36.5 µM (inactive) | 21.4 µM (inactive) | 19.1 µM (inactive) | 17.7 µM (inactive) | 54.7 µM (inactive) | 13 µM (inactive) | 27.5 µM (inactive) | 27 µM (inactive) | 74.5 µM (inactive) | 32 µM (inactive) | 27.9 µM (inactive) | 22 µM (inactive) | 10.3 µM (inactive) | 17.7 µM (inactive) | 43.3 µM (inactive) | 18.8 µM (inactive) |
| N#CC1Cc2cc3c(cc21)OCO3 (centres undefined) | > 100 µM (inactive) | > 100 µM (inactive) | > 100 µM (inactive) | > 100 µM (inactive) | > 100 µM (inactive) | > 100 µM (inactive) | > 100 µM (inactive) | > 100 µM (inactive) | > 100 µM (inactive) | > 100 µM (inactive) | > 100 µM (inactive) | > 100 µM (inactive) | > 100 µM (inactive) | – | > 100 µM (inactive) | > 100 µM (inactive) | > 100 µM (inactive) | > 100 µM (inactive) | > 100 µM (inactive) | – |
| Cc1cccc(N2C(=O)C3ON(C(C(N)=O)c4ccccc4)C(c4c5ccccc5c(Cl)c5ccccc45)C3C2=O)c1C (centres undefined) | 12.7 µM (inactive) | 16.4 µM (inactive) | 11.6 µM (inactive) | 7.67 µM (inactive) | 7.82 µM (inactive) | 1.34 µM (inactive) | 8.05 µM (inactive) | 7.1 µM (inactive) | 1.85 µM (inactive) | 11.9 µM (inactive) | 9.84 µM (inactive) | 9.42 µM (inactive) | 9.57 µM (inactive) | – | 3.53 µM (inactive) | 8.02 µM (inactive) | 7.78 µM (inactive) | 1.89 µM (inactive) | 10.3 µM (inactive) | 10.5 µM (inactive) |
| CCOCC(NC(=O)C(CC(C)C)NC(=O)OC(C)(C)C)C(N)=O (stereo not drawn) (Boc-Leu-Ser(Et)-NH2; configuration not given here) | – | > 100 µM (inactive) | > 100 µM (inactive) | > 100 µM (inactive) | > 100 µM (inactive) | > 100 µM (inactive) | 0.11 µM (active) | > 100 µM (inactive) | > 100 µM (inactive) | > 100 µM (inactive) | > 100 µM (inactive) | > 100 µM (inactive) | > 100 µM (inactive) | – | 1.59 µM (inactive) | 1.46 µM (inactive) | > 100 µM (inactive) | > 100 µM (inactive) | > 100 µM (inactive) | > 100 µM (inactive) |
| CCOC(=O)/C(C#N)=N\Nc1ccc(-n2c(C)nc3ccccc3c2=O)cc1 | 49.1 µM (inactive) | 50.4 µM (inactive) | > 100 µM (inactive) | > 100 µM (inactive) | > 100 µM (inactive) | 59.6 µM (inactive) | 63.5 µM (inactive) | 66.2 µM (inactive) | 30.2 µM (inactive) | > 100 µM (inactive) | 29.6 µM (inactive) | 78.3 µM (inactive) | – | 30.9 µM (inactive) | 75.9 µM (inactive) | > 100 µM (inactive) | 75.3 µM (inactive) | 23.7 µM (inactive) | > 100 µM (inactive) | – |
| COc1ccc(/C=C2\CCS(=O)(=O)c3ccccc3C2=O)cc1OC | > 100 µM (inactive) | 31 µM (inactive) | 28.8 µM (inactive) | 25.6 µM (inactive) | 36.7 µM (inactive) | 28.1 µM (inactive) | 24.9 µM (inactive) | 19.1 µM (inactive) | 28.4 µM (inactive) | 33.4 µM (inactive) | 19.1 µM (inactive) | 48.8 µM (inactive) | 17.9 µM (inactive) | 35.2 µM (inactive) | 38 µM (inactive) | 31.9 µM (inactive) | 27.5 µM (inactive) | 46.2 µM (inactive) | 68.1 µM (inactive) | – |
| C=C1CC[C@@H](C)[C@](C)(CCc2ccoc2)C/C=C\C=C/1C(=O)O | 32.3 µM (inactive) | 34.1 µM (inactive) | 50.4 µM (inactive) | 19.6 µM (inactive) | 36.7 µM (inactive) | 21.8 µM (inactive) | 80 µM (inactive) | 21.1 µM (inactive) | 33.1 µM (inactive) | 58.6 µM (inactive) | 21 µM (inactive) | 21 µM (inactive) | 39.5 µM (inactive) | – | 32.8 µM (inactive) | 34.3 µM (inactive) | 28.9 µM (inactive) | 27 µM (inactive) | > 100 µM (inactive) | – |
| COc1ccc(OCc2nc3cc(C(F)(F)F)ccc3nc2-c2ccccc2)cc1 | > 100 µM (inactive) | > 100 µM (inactive) | > 100 µM (inactive) | > 100 µM (inactive) | > 100 µM (inactive) | > 100 µM (inactive) | > 100 µM (inactive) | > 100 µM (inactive) | > 100 µM (inactive) | 94.8 µM (inactive) | > 100 µM (inactive) | > 100 µM (inactive) | > 100 µM (inactive) | > 100 µM (inactive) | > 100 µM (inactive) | > 100 µM (inactive) | > 100 µM (inactive) | > 100 µM (inactive) | > 100 µM (inactive) | – |
| CCOC(=O)NC(Nc1ccc(F)cc1F)(C(F)(F)F)C(F)(F)F | > 100 µM (inactive) | > 100 µM (inactive) | > 100 µM (inactive) | > 100 µM (inactive) | > 100 µM (inactive) | > 100 µM (inactive) | > 100 µM (inactive) | > 100 µM (inactive) | > 100 µM (inactive) | > 100 µM (inactive) | > 100 µM (inactive) | > 100 µM (inactive) | – | > 100 µM (inactive) | > 100 µM (inactive) | > 100 µM (inactive) | > 100 µM (inactive) | > 100 µM (inactive) | > 100 µM (inactive) | > 100 µM (inactive) |

Source: ChEMBL document CHEMBL1201862, “PubChem BioAssay data set” (2004)
